Experimental data taken from paper PMC3694297, “Establishment of a simplified in vitro porcine blood–brain barrier model with high transendothelial electrical resistance” (Brain Research, 2013).

How the values were obtained:
[1] = tested on: porcine brain endothelial cells (PBECs); settings: apical to basal, P.1 PBEC; line through passive compounds R^2=0.96
Description: Permeability assays were performed on cell monolayers with TEER >500 Ω cm^2. […] At t=5 min, the inserts were transferred to the next well containing donor buffer. This procedure was repeated for all inserts at t=15 min and t=30 min. At the end of the experiment, samples were taken from each insert and well to scintillation vials. OptiPhase HiSafe 2 scintillation liquid was added to each vial and radioactivity was counted using a Canberra Packard Tricarb 1900 TR Liquid Scintillation Analyser.
Cleared volume was calculated using the following equation and plotted as a function of time:(1) Clearedvolume(μl)=MR(dpm)/CD(dpm/μl) where is the MR=amount of radio-labelled compound in the receiver compartment, dpm=disintegrations per minute, CD=concentration of the compound in the donor compartment.
All dpm values were corrected for background dpm. The slope of the clearance curve was obtained by linear regression and represents the PS (i.e. permeability × surface area) product. Apparent permeability (Papp, cm/s) was calculated using the following equation:(2) Papp(cm/s)=PSproduct(cm^3/s)/surfaceareaoftheinsert(cm^2)
The apparent permeability Papp was calculated according to Eq. (2) and plotted against the calculated Log Poctanol as a measure of lipophilicity of the compound.

[2] = tested on: cEND (an immortalised mouse brain endothelial cell line); parameters: method as in Förster et al. (2005); settings: cEND cells treated with hydrocortisone; ref Förster et al. (2005); cited from earlier work
[3] = tested on: hCMEC/D3, immortalised human brain microvascular endothelial cells; parameters: method as in Förster et al., 2008; settings: hCMEC/D3 treated with hydrocortisone; ref Förster et al., 2008; cited from earlier work

SMILES	Papp relative to the line of Papp vs. calculated Log Poctanol [1]	other results
C=CCN1CC[C@]23c4c5ccc(O)c4O[C@H]2C(=O)CC[C@@]3(O)[C@H]1C5 [naloxone]	linear function of calculated Log Poctanol	–
N[C@@H](CCC(=O)O)C(=O)O [glutamate, L-glutamic acid]	clear outliers below the line	–
CC[C@]1(O)C[C@@H]2CN(CCc3c([nH]c4ccccc34)[C@@](C(=O)OC)(c3cc4c(cc3OC)N(C)[C@H]3[C@@](O)(C(=O)OC)[C@H](OC(C)=O)[C@]5(CC)C=CCN6CC[C@]43[C@@H]65)C2)C1 [vinblastine]	clear outliers below the line	–
CC(C)NCC(O)COc1cccc2ccccc12 (stereo not drawn) [propranolol]	linear function of calculated Log Poctanol	–
Cn1c(=O)c2c(ncn2C)n(C)c1=O [caffeine]	clear outliers above the line	–
C[C@]12CCC(=O)C=C1CC[C@@H]1[C@@H]2[C@@H](O)C[C@@]2(C)[C@H]1CC[C@]2(O)C(=O)CO [hydrocortisone]	–	increase in TEER [2]: threefold; increase in TEER [3]: three-fold; increase in expression of occludin and claudin-5 [3]: over twofold
CC(C)C[C@H](N)C(=O)O [Leucine, L-leucine]	clear outliers above the line	–
